Data reported in patent US7097825B2, “Methods and reagents to acquire MRI signals and images” (Allos Therapeutics, Inc., priority 2001, dated 2006).

What was measured:
hemoglobin = target: T1, hemoglobin (Mus musculus, UniProt P01942+P02088); conditions: 20–40 min after 300 mg/kg RSR13 injection into mice; cited from earlier work
T1 construct: after a 300 mg/kg RSR13 injection into mice; host or cells: blood (erythrocytes) of mice injected with RSR13; endogenous hemoglobin

[1] = tested on: NCI-H460 human large cell lung carcinoma xenografts; test: Tumor growth delay, RSR13 and/or radiation; assay type: in vivo, athymic nude mice; conditions: for Tumor growth delay: n=4
Protocol: (§1) NCI-H460 human large cell lung carcinoma cells were obtained from the American Type Culture Collection (ATCC). H460 cells were cultured at 37° C., 5% CO2 in RPMI 1640 medium (Gibco BRL, Gaithersburg, Md.)+10% fetal bovine serum (Gibco)+50 U/ml penicillin (Gibco)+50 μg/ml streptomycin (Gibco). Cells were routinely passaged using 0.05% trypsin-EDTA. Human NIH-H460 cells were used as a xenograft model in female athymic nude mice (nu/nu, 5–6 weeks old). Cells at 80% confluence were trypsinized, resuspended in growth medium, and counted. Cells were then centrifuged and resuspended in 37° C. PBS at 2×10^7 cells/ml. A suspension of 2×10^6 cells in a 0.1 ml volume was injected subcutaneously (s.c.) into the left posterior flank. Tumors were allowed to grow for 2 weeks (about 1 cm^3) before imaging, or for 7 days prior to treatment with RSR13 and radiation.
Tumors on the flanks of mice were irradiated using an Eldorado-8 ^60Co γ irradiator (Neutron Products, Inc., Dickerson, Md.). The dose rate was 1.18 Gy/min, at an SSD of 56.5 cm. The non-tumor parts of mice were shielded using lead blocks. Mice were irradiated using restraining devices constructed from 50 ml conical polyethylene tubes taped to a Styrofoam pad. Mice were irradiated 30 min after administration of RSR13 (given by intraperitoneal injection).
Tumors were measured three times weekly in two perpendicular dimensions using Vernier calipers. Volumes were calculated using the formula: volume=0.4* ab^2 (a=long dimension, b=short dimension). Treatment began when tumors reached an average volume of about 0.3 cm^3. Growth delay time (GD) was calculated as the time for treated tumors to double in volume minus the time for control tumors to double in volume, with t=0 defined as the first day of treatment. Treatment groups consisted of either untreated control, radiation alone, RSR13 alone, or RSR13 plus radiation. Each treatment group contained four mice.
A paired t-test was applied to test the differences between baseline and follow-up time points. […]

tumors = conditions: previous studies, fractionated radiotherapy; cited from earlier work
[2] = tested on: NCI-H460 human large cell lung carcinoma xenografts; test: BOLD MRI signal ratio in tumors after RSR13 injection; assay type: in vivo, athymic nude mice; conditions: for Change in BOLD MRI signal: (Intensity (t = 30 min)/Intensity (t = 0)): 30 min after injection, preliminary
Protocol: as §1
Mice with tumors were anesthetized with 0.05 cc of a ketamine (100 mg/ml) and acepromezine (2.5 mg/0.25 ml) cocktail (induction anesthesia). A 24G angiocath, attached to a syringe with the appropriate amount of RSR13, was then placed and secured intraperitoneally (i.p.). Mice were placed in a pre-warmed anesthesia chamber and the surface coil was positioned over the tumor. The entire assembly was then placed into a Varian 4.7T small bore MR scanner. The anesthesia chamber was then infused with a mixture of 98.5% room air and 1.5% isoflurane (maintenance anesthesia) at a rate of 1.5 L/min throughout the experiment. After scout images were obtained to localize the tumor, serial gradient echo images were obtained at ten-minute intervals over a total of 60 minutes. RSR13 was supplied as a 20-mg/ml stock solution, which was diluted with sterile phosphate-buffered saline (PBS) prior to experiments to achieve the desired dose (mg/kg) per […]. At the start of acquisition of the second image (“time 0”), a dose of RSR13 was injected i.p. RSR13 doses were administered in 0.3 ml volumes; control mice were given injections of saline. Preliminary experiments were performed to optimize the BOLD contrast, first by imaging mouse tumors without any drug, and then by administering different doses of RSR13. A dose of 200 mg/kg was then chosen for further studies. Parameters for BOLD-MRI scans were chosen to maximize sensitivity to oxygen dependent changes in the relaxation parameter T2*. The following MRI parameters were used: TR=520 ms, TE=27 ms, flip angle=45°, 18 signal averages, 230 μm spatial resolution, matrix=128×128, bandwidth=37.4 kHz, field of view=3×3 cm. Color maps indicating percent increase in signal relative to the baseline gradient echo image were created for each image. Color maps were overlaid on corresponding spin echo images for anatomic reference. After images were acquired, each individual tumor (at t=30 min.) was examined slice by slice, and a single slice which was most representative of the entire tumor was chosen. Within each representative slice, a 15×15-pixel regions of interest (ROI) was drawn around the area of maximum signal intensity (about 25% of the tumor slice area). The voxel size was 0.23 mm×0.23 mm×1 mm; thus the slice thickness was 1 mm. The same slice and ROI were then used to calculate the signal ratio corresponding to the other times for the same tumor. The following signal ratio was calculated: Intensity (t)/Intensity (t=0 min). Based on the signal parameters listed above, the MRI signal intesnsity is proportional to the MR relaxation time, T*2, which is linearly related to the level of oxygen saturation. See, e.g. Ogawa, et al., Magn. Reson. Med. 29:205–10 (1993). Images were analyzed in a blind fashion in the dose dependence studies, without knowledge of the drug doses used, to eliminate observer bias.
A paired t-test was applied to test the differences between baseline and follow-up time points. All tests of significance were two-sided, and differences were considered statistically significant when the P value was≦0.05. […]

T1 sequence (P01942 2-142 limits assumed): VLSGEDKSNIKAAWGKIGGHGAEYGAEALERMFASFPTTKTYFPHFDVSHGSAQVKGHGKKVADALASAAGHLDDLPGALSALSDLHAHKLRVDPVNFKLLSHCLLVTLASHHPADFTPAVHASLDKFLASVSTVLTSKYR
T1 sequence (P02088 2-147 limits assumed): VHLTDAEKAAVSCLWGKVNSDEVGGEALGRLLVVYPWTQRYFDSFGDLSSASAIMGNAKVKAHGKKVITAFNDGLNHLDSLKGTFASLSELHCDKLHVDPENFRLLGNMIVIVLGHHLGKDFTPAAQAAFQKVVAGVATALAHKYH

Cc1cc(C)cc(NC(=O)Cc2ccc(OC(C)(C)C(=O)O)cc2)c1 [RSR13, 2-[4-(((3,5-dimethylanilino)carbonyl)methyl)phenoxy]-2-methylpropionic acid]
Mean increase of pO2 at 50% hemoglobin saturation (hemoglobin): 53%
Enhancement factor (growth delay RSR13 plus radiation / radiation alone) ([1]; 6.6/2.4, 200 mg/kg, 10 Gy 30 min later): 2.8
Tumor growth delay ([1]; RSR13 200 mg/kg i.p. plus radiation 10 Gy given 30 min later, radiation alone 2.4 days): 6.6 days
Tumor growth delay ([1]; RSR13 alone, 200 mg/kg i.p.): did not affect tumor growth delay
Enhancement ratios (dose modifying factors) (tumors): 1.3–1.8
Increase of MRI signal ratio between t=10 and 30 min ([2]; 200 mg/kg i.p., n=8, P=0.04): 14%
Increase of MRI signal ratio between t=10 and 20 min ([2]; 200 mg/kg i.p., n=8, P=0.05): 9%
Changes of MRI signal ratio between t=10 and 40, 50, or 60 min ([2]; 200 mg/kg i.p., n=8, P≧0.05): not statistically significant
Time of maximum MRI signal ratio after RSR13 injection ([2]; 200 mg/kg i.p., n=8 mice): 30 min
Increase in signal in tumor tissue ROI, normalized to signal at time zero ([2]; FIG. 9, H460 tumor ROI 1, about two hours after time zero injection): ~20%
Change in BOLD MRI signal: (Intensity (t = 30 min)/Intensity (t = 0)) ([2]; RSR13 100 mg/kg i.p., 1 mouse (Mouse B)): 1.13
Change in BOLD MRI signal: (Intensity (t = 30 min)/Intensity (t = 0)) ([2]; RSR13 200 mg/kg i.p., 1 mouse (Mouse C)): 1.20
Change in BOLD MRI signal: (Intensity (t = 30 min)/Intensity (t = 0)) ([2]; RSR13 300 mg/kg i.p., 1 mouse (Mouse D)): 1.19
Dose at which the signal ratio reached a plateau ([2]; doses 0, 100, 200, 300 mg/kg, t=30 min): 200 mg/kg
